# Data published in patent EP0535528A1, “Antibacterial 5-Nitro-1-methyl-imidazolyl-3-terbutyl-2-hydroxy-aryl-carbinols” (EURORESEARCH S.r.L., priority 1991, dated 1993).
# Columns and labels:
# Helicobapter pylori [1] = test: Minimal inhibiting concentration (agar dilution); type: cell-based
# Description: Substances under examination: EU11100, EU11102, EU11103, EU11104. Comparison substance: Metronidazole Solubilization of the substances: All the substances to be studied are dissolved at room temperature in DMSO. […] 10 strains of Helicobapter pylori are used of recent clinical isolation […] The sowing of the bacteria, prepared as described in the preceding test is carried out by means a "multi-point inoculator". After 48 hours incubation under the condition described in the preceding test, the plates are examined and the Minimal Inhibiting Concentration is evaluated, namely that dose corresponding to growth absence.
# Helicobapter pylori [2] = test: Inhibition halos of the bacterial growth (impregnated disks on agar); type: cell-based; details: for activity against the Helicobapter pylori strains used: 10 strains; for Inhibition halo (mm), Average: average of 10 strains
# Description: Comparison substance: Metronidazole Solubilization of the substances : All the substances to be studied are dissolved at room temperature in DMSO.
# Some commercially available antibiogram disks are so impregnated with the above mentioned compounds that each disk has concentration equal to 10, 1, 0.1, 0.01 µg.
# 10 strains of Helicobapter pylori are used of recent clinical isolation.
# Columbia Blood Agar Base is used, containing 5% of defibrinated horse blood, 2 % of calf serum, 2 vials of Vitox per liter of medium and Vancomicine (10 µg/ml) Trimetoprim lactate(5 µg/ml) and Polimixin B (2.5 U/ml).
# 0.1 ml of a suspension of the different used strains are uniformly distributed onto Petri plates, containing 20 ml of Columbia Blood Agar base, obtained by taking a sample, by means of a platinum loop, of different colonies from a 48 hours culture, grown in anaerobiosis jars with "Gas Pack", without a catalyst and diluted into a physiological solution.
# 4 disks per plate, previously impregnated with the substances under examination, are then placed onto the agar layer of each plate.
# After 48 hours of anaerobiosis incubation, as above described, the inhibition halos of the bacterial growth, produced by the different activity of the substances inside the agar, are evaluated.
# Swiss female albino mice = test: Oral and intraperitoneal acute toxicity in mice (LD50, Probits method); type: in vivo; details: mice
# Description: 20 Swiss female albino mice are used for this test of the average weight of 20 g (±2), coming from Nossan breeding .
# Cages: in Makrolon® with saw dust litter, Number of animals per cage: 5 Acclimation period: 1 week Temperature: 22°C (± 2°C) Humidity : 60%, Diet: pellets for mice produced by Nossan firm, Water ad libitum Fast before the treatment: 16 hours
# Oral by gastric route and intraperitoneal.
# The substances to be studied: EU11100, EU11102, EU11103, EU11104 are treated with 0.5% carboxymethylcellulose in spring water, for the oral administration, whereas the same substances are intraperitoneally administered in the form of a physiological solution .
# For each of the above mentioned substances, a mother suspension is prepared having a concentration in the active ingredient of 250 mg/ml for the oral administration, and analogously a mother suspension is prepared for the intraperitoneal administration having a concentration of the desired active principle of 100 mg/ml.
# The following doses are used • a) oral route: 5000 mg/kg • b) intraperitoneal route : 2000 mg/kg
# If mortality is observed at the above mentioned doses, other doses are administered in order to obtain a dose-response curve.
# 5 animals are used for every utilized concentration.
# After the administration of the above substances the animals are kept under observation for 14 days , during which the mortality and the behaviour is observed.
# LD₅₀ is determined on the base of the cumulative mortality observed in the successive 14 days after the administration by using the Probits method.
smiles,measurement,setting,value
"Cc1ccc(C(C)(C)C)c(O)c1C(O)c1ncc([N+](=O)[O-])n1C (centres unmarked) [EU11104, 5-nitro-1-methyl-imidazolyl-3-terbutyl-2-hydroxy-6 methyl-phenyl-carbinol]",MIC 50%,Helicobapter pylori [1]; 10 strains,0.03 µg/mL
same,MIC 90%,Helicobapter pylori [1]; 10 strains,0.06 µg/mL
same,MIC range,Helicobapter pylori [1]; 10 strains,0.015 to 0.016 µg/mL
same,MIC values,"Helicobapter pylori [1]; in words, compared with Metronidazole",very low MIC values
same,M.I.C.,Helicobapter pylori [1]; strain 1,0.12 µg/mL
same,M.I.C.,Helicobapter pylori [1]; strain 2,0.03 µg/mL
same,M.I.C.,Helicobapter pylori [1]; strain 3,0.06 µg/mL
same,M.I.C.,Helicobapter pylori [1]; strain 4,0.015 µg/mL
same,M.I.C.,Helicobapter pylori [1]; strain 5,0.03 µg/mL
same,M.I.C.,Helicobapter pylori [1]; strain 6,0.03 µg/mL
same,M.I.C.,Helicobapter pylori [1]; strain 7,0.06 µg/mL
same,M.I.C.,Helicobapter pylori [1]; strain 8,0.06 µg/mL
same,M.I.C.,Helicobapter pylori [1]; strain 9,0.06 µg/mL
same,M.I.C.,Helicobapter pylori [1]; strain 10,0.015 µg/mL
same,activity against the Helicobapter pylori strains used,Helicobapter pylori [2]; 0.1 µg/disk,active against 4 out of 10 strains
same,activity against the Helicobapter pylori strains used,Helicobapter pylori [2]; 1 µg/disk,active against all the Helicobapter pylori used
same,activity against the Helicobapter pylori strains used,Helicobapter pylori [2]; disk test,active against all the Helicobapter pylori strains used
same,"Inhibition halo (mm), Average",Helicobapter pylori [2]; 1 µg/disk,24.9 mm
same,"Inhibition halo (mm), Average",Helicobapter pylori [2]; 10 µg/disk,31.5 mm
same,Inhibition halo (mm) at the concentration (µg/disk),"Helicobapter pylori [2]; strain 1, 0.01 µg/disk",0 mm
same,Inhibition halo (mm) at the concentration (µg/disk),"Helicobapter pylori [2]; strain 1, 1 µg/disk",27 mm
same,Inhibition halo (mm) at the concentration (µg/disk),"Helicobapter pylori [2]; strain 1, 10 µg/disk",33 mm
same,Inhibition halo (mm) at the concentration (µg/disk),"Helicobapter pylori [2]; strain 2, 0.01 µg/disk",0 mm
same,Inhibition halo (mm) at the concentration (µg/disk),"Helicobapter pylori [2]; strain 2, 0.1 µg/disk",0 mm
same,Inhibition halo (mm) at the concentration (µg/disk),"Helicobapter pylori [2]; strain 2, 1 µg/disk",22 mm
same,Inhibition halo (mm) at the concentration (µg/disk),"Helicobapter pylori [2]; strain 2, 10 µg/disk",30 mm
same,Inhibition halo (mm) at the concentration (µg/disk),"Helicobapter pylori [2]; strain 3, 0.01 µg/disk",0 mm
same,Inhibition halo (mm) at the concentration (µg/disk),"Helicobapter pylori [2]; strain 3, 0.1 µg/disk",0 mm
same,Inhibition halo (mm) at the concentration (µg/disk),"Helicobapter pylori [2]; strain 3, 1 µg/disk",22 mm
same,Inhibition halo (mm) at the concentration (µg/disk),"Helicobapter pylori [2]; strain 3, 10 µg/disk",28 mm
same,Inhibition halo (mm) at the concentration (µg/disk),"Helicobapter pylori [2]; strain 4, 0.01 µg/disk",0 mm
same,Inhibition halo (mm) at the concentration (µg/disk),"Helicobapter pylori [2]; strain 4, 1 µg/disk",30 mm
same,Inhibition halo (mm) at the concentration (µg/disk),"Helicobapter pylori [2]; strain 4, 10 µg/disk",36 mm
same,Inhibition halo (mm) at the concentration (µg/disk),"Helicobapter pylori [2]; strain 5, 0.01 µg/disk",0 mm
same,Inhibition halo (mm) at the concentration (µg/disk),"Helicobapter pylori [2]; strain 5, 0.1 µg/disk",0 mm
same,Inhibition halo (mm) at the concentration (µg/disk),"Helicobapter pylori [2]; strain 5, 1 µg/disk",22 mm
same,Inhibition halo (mm) at the concentration (µg/disk),"Helicobapter pylori [2]; strain 5, 10 µg/disk",28 mm
same,Inhibition halo (mm) at the concentration (µg/disk),"Helicobapter pylori [2]; strain 6, 0.01 µg/disk",0 mm
same,Inhibition halo (mm) at the concentration (µg/disk),"Helicobapter pylori [2]; strain 6, 0.1 µg/disk",14 mm
same,Inhibition halo (mm) at the concentration (µg/disk),"Helicobapter pylori [2]; strain 6, 1 µg/disk",29 mm
same,Inhibition halo (mm) at the concentration (µg/disk),"Helicobapter pylori [2]; strain 6, 10 µg/disk",35 mm
same,Inhibition halo (mm) at the concentration (µg/disk),"Helicobapter pylori [2]; strain 7, 0.01 µg/disk",0 mm
same,Inhibition halo (mm) at the concentration (µg/disk),"Helicobapter pylori [2]; strain 7, 0.1 µg/disk",0 mm
same,Inhibition halo (mm) at the concentration (µg/disk),"Helicobapter pylori [2]; strain 7, 1 µg/disk",22 mm
same,Inhibition halo (mm) at the concentration (µg/disk),"Helicobapter pylori [2]; strain 7, 10 µg/disk",26 mm
same,Inhibition halo (mm) at the concentration (µg/disk),"Helicobapter pylori [2]; strain 8, 0.01 µg/disk",0 mm
same,Inhibition halo (mm) at the concentration (µg/disk),"Helicobapter pylori [2]; strain 8, 0.1 µg/disk",17 mm
same,Inhibition halo (mm) at the concentration (µg/disk),"Helicobapter pylori [2]; strain 8, 1 µg/disk",31 mm
same,Inhibition halo (mm) at the concentration (µg/disk),"Helicobapter pylori [2]; strain 8, 10 µg/disk",37 mm
same,Inhibition halo (mm) at the concentration (µg/disk),"Helicobapter pylori [2]; strain 9, 0.01 µg/disk",0 mm
same,Inhibition halo (mm) at the concentration (µg/disk),"Helicobapter pylori [2]; strain 9, 0.1 µg/disk",0 mm
same,Inhibition halo (mm) at the concentration (µg/disk),"Helicobapter pylori [2]; strain 9, 1 µg/disk",21 mm
same,Inhibition halo (mm) at the concentration (µg/disk),"Helicobapter pylori [2]; strain 9, 10 µg/disk",30 mm
same,Inhibition halo (mm) at the concentration (µg/disk),"Helicobapter pylori [2]; strain 10, 0.01 µg/disk",0 mm
same,Inhibition halo (mm) at the concentration (µg/disk),"Helicobapter pylori [2]; strain 10, 0.1 µg/disk",0 mm
same,Inhibition halo (mm) at the concentration (µg/disk),"Helicobapter pylori [2]; strain 10, 1 µg/disk",23 mm
same,Inhibition halo (mm) at the concentration (µg/disk),"Helicobapter pylori [2]; strain 10, 10 µg/disk",32 mm
same,toxicity when intraperitoneally administered,"Swiss female albino mice; intraperitoneal, 2000 mg/kg",not toxic
same,toxicity when orally administered,"Swiss female albino mice; oral, 5000 mg/kg",not toxic
